Reference: US5459063A, “Plasmodium falciparum ribonucleotide reductase DNA” (priority 1993, dated 1995)
Where two headings read alike, the source gives them in different places. Square brackets hold non-standard residues; d marks the D form. Ends that are not written are not given here. Peptide text beside a SMILES is read from it. Phe(4-N3) = [N-]=[N+]=Nc1ccc(C[C@H](N)C(=O)O)cc1; Phe(4-NH2) = Nc1ccc(C[C@H](N)C(=O)O)cc1

Molecular target: T1, calf thymus/mouse ribonucleotide reductase (mammalian RR) (Bos taurus, UniProt Q32LP1)
T1 sequence (Q32LP1 1-791): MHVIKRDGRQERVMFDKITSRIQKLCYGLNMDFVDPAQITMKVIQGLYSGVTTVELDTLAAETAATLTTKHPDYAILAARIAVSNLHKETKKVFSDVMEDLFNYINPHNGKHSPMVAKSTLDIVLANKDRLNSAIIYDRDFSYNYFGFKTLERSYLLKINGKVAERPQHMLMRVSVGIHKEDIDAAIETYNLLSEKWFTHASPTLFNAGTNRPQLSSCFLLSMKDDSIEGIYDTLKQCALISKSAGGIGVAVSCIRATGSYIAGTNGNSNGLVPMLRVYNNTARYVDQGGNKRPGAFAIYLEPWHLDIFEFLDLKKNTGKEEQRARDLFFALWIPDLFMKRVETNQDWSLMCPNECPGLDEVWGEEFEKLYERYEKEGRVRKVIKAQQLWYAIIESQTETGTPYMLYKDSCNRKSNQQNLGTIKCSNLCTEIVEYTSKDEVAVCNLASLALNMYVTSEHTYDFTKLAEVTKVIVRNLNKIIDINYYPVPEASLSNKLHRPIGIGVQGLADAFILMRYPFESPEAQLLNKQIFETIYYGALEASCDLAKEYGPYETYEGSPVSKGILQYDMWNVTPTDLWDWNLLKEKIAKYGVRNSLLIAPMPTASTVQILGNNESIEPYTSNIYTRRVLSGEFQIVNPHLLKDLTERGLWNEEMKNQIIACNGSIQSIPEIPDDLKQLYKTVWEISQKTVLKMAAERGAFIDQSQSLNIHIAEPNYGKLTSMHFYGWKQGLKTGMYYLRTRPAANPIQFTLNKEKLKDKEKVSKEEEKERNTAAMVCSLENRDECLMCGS
Experiment: biochemical
Settings: for Percent RI (percent relative inhibitory potency): 100 × (IC50 Ac(FTLDADF)/IC50 peptide analog)
Text: From two to four assays were run

Compound	IC50 [µM]	Percent RI (percent relative inhibitory potency) (Table 4, mammalian RR) [%]	IC50 (read-out: IC50, concentration of peptide producing 50% inhibition of activity, Table 4, mammalian RR, Dixon plots of 4-6 concentration points, ranges are two independent determinations on different days) [µM]	IC50 (IC50 on mammalian RR activity, Example 54 text, peptide bound to purified calf thymus R1 before adding recombinant mouse R2) [µM]	times less potent an inhibitor on mammalian RR activity than Ac-(SEQ ID NO:6) (relative to Ac-(SEQ ID NO:6))
CC(=O)N[C@@H](Cc1ccc(N)cc1)C(=O)N[C@H](C(=O)N[C@@H](CC(C)C)C(=O)N[C@@H](CC(=O)O)C(=O)N[C@@H](C)C(=O)N[C@@H](CC(=O)O)C(=O)N[C@@H](Cc1ccccc1)C(=O)O)[C@@H](C)O [Peptide 9, Ac- (F(4'-NH2)TLDADF)] (Ac-[Phe(4-NH2)]TLDADF-OH)	100	10			
CC(=O)N[C@@H](Cc1ccc(N=[N+]=[N-])cc1)C(=O)N[C@H](C(=O)N[C@@H](CC(C)C)C(=O)N[C@@H](CC(=O)O)C(=O)N[C@@H](C)C(=O)N[C@@H](CC(=O)O)C(=O)N[C@@H](Cc1ccccc1)C(=O)O)[C@@H](C)O [Peptide 10, Ac- (F(4'-N3)TLDADF)] (Ac-[Phe(4-N3)]TLDADF-OH)	100	10			
Ac- (FTFTADF) [Peptide 14]		18 ± 4.2	48 to 58		
Ac-FALDADF [Peptide 12, Ac- (FALDADF)]	35 to 40	24 ± 4.1			
Ac-FCLNTEF [Ac-(SEQ ID NO:7), Ac- (FCLNTEF)]				160	8-16 times
Ac-FLDADF [Peptide 25, Ac- (FLDADF)]	412	2.5			
Ac-FSLDADF [Peptide 11, Ac- (FSLDADF)]	40 to 42	25 ± 1.1			
Ac-FTADADF [Peptide 15, Ac- (FTADADF)]	207	4.9 ± 0.60			
Ac-FTFNEDF [Peptide 30, Ac- (FTFNEDF)]	100				
Ac-FTLAADF [Peptide 17, Ac- (FTLAADF)]	286 to 336	2.9 ± 0.4			
Ac-FTLDAAF [Peptide 23, Ac- (FTLDAAF)]	34 to 35	28 ± 1.3			
Ac-FTLDADFAA [Peptide 28]	500	2.1			
Ac-FTLDADL [Peptide 24, Ac- (FTLDADL)]	> 400	< 3			
Ac-FTLDAEF [Peptide 20, Ac- (FTLDAEF)]	450 to 620	1.7 ± 0.15			
Ac-FTLDALF [Peptide 22, Ac- (FTLDALF)]	29 to 30	35 ± 5.0			
Ac-FTLDANF [Peptide 21, Ac- (FTLDANF)]	32 to 38	23 ± 1.0			
Ac-FTLDDF [Peptide 26, Ac- (FTLDDF)]	322	3			
Ac-FTLDF [Peptide 27, Ac- (FTLDF)]	364 to 460	2.5 ± 0.18			
Ac-FTLDGDF [Peptide 18, Ac- (FTLDGDF)]	110 to 230	9 ± 0.6			
Ac-FTLDLDF [Peptide 19, Ac- (FTLDLDF)]	28	35			
Ac-FTLNADF [Peptide 16, Ac- (FTLNADF)]	25 to 29	40 ± 2.4			
Ac-FTVDADF [Peptide 13, Ac- (FTVDADF)]	30	35			
Ac-LDADF [Peptide 7, Ac- (LDADF)]	> 400	< 3			
Ac-LTLDADF [Peptide 8, Ac- (LTLDADF)]	> 400	< 3			
Ac-NSFTLDADF [Peptide 1]	9 to 15	100			
Ac-SFTLDADF [Peptide 2]	8 to 20	100			
Ac-TLDADF [Peptide 6, Ac- (TLDADF)]	> 400	< 3			
FTLDADF [Peptide 5, FTLDADF]	> 400	< 3			
